According to PubChem BioAssay AID820 (PCMD, 2007):
Results filed as inconclusive are left out. Calls of active or inactive are those of the source. No rule for the calls is given here.

These compounds were tested against Cathepsin B (Homo sapiens) (UniProt P07858) (assay: inhibitor potency against CatB, confirmatory, in vitro biochemical, concentration-effect curve (AID 820)). Details: purified cathepsin B enzyme activity, signal read-out.

Compound	IC50
COc1cc2c(cc1OC)-c1c(OC)c(OC)cc3c1C(C2)N(C)CC3 (stereo unspecified)	> 50 µM (inactive)
COc1ccc(N(CC(=O)NCC2CCCO2)S(=O)(=O)c2c(C)noc2C)cc1 (stereo unspecified)	> 50 µM (inactive)
COC(=O)c1ccccc1NC(=O)Cn1c(-c2nonc2N)nc2ccccc21	> 50 µM (inactive)
N#Cc1c(N2CCCC2)nc(N)c2c(N)nc(N3CCCC3)cc12	3.17 µM
COc1ccc(S(=O)(=O)n2nc(OC(=O)c3ccc(C)cc3)cc2N)cc1	12.3 µM
CC(=O)OC1(C(F)(F)F)Oc2ccccc2NC1=O (stereo unspecified)	0.845 µM
COc1ccc(C(=O)c2no[n+]([O-])c2C(=O)c2ccc(OC)cc2)cc1	11.5 µM
CC(=O)NC(=O)NC1OC(=O)C(Cl)=C1Cl (stereo unspecified)	2.12 µM
Nc1nonc1-c1noc(N2CCCCC2)n1	> 50 µM (inactive)
CCn1nc(-c2cccs2)nc2c(=O)n(C)c(=O)nc1-2	0.0722 µM
CCC(C)[C@@H](NC(=O)OC(C)(C)C)c1nnc(S(=O)(=O)Cc2cccc(C)c2)o1 (stereo partly specified)	2.09 µM
Nc1cc(OC(=O)c2ccco2)nn1S(=O)(=O)c1ccc(F)cc1	1.26 µM
CCSc1ccccc1C(=O)n1nnc2ccccc21	7.11 µM
Cc1ccc(S(=O)(=O)n2nc(OC(=O)c3ccco3)cc2N)cc1	1.75 µM
CC1=C(C)CS(=O)N(S(=O)(=O)c2ccc(Cl)cc2)C1 (stereo unspecified)	4.17 µM
CCN(C(=O)COc1cc(=O)n(C)c2ccccc12)c1cccc(Cl)c1	> 50 µM (inactive)
COc1cccc(Cn2c(-c3nonc3N)nc3ccccc32)c1	46 µM
Nc1nc2n(n1)C1(CCCCC1)C1=C(CCCC1)N2	12.9 µM
O=C1CC(c2ccco2)Cc2nc(N3CCc4ccccc4C3)ncc21 (stereo unspecified)	> 50 µM (inactive)
CCOC(=O)c1sc(=NC(=O)c2ccc(S(=O)(=O)N3CC(C)OC(C)C3)cc2)n(C)c1C (stereo unspecified)	> 50 µM (inactive)
Nc1nonc1-c1nc2ccccc2n1CC(=O)N1CCCCC1	44.6 µM

Compound	IC50
Cn1c(=O)c2c(-c3ccccc3)n(-n3cnnc3)cc2n(C)c1=O	1.19 µM
COc1ccc(S(=O)(=O)n2nc(OC(=O)c3cccs3)cc2N)cc1	0.692 µM
O=C(CNC(=O)c1ccco1)OCN1C(=O)c2ccccc2C1=O	8.56 µM
COc1ccc(C)c(Cn2c(-c3nonc3N)nc3ccccc32)c1	37.2 µM
COc1nc(N(C#N)CC(N)=O)nc(N2CCCC2)n1	14.2 µM
COc1ccc(C(=O)C(OC(=O)CNC(=O)c2ccco2)c2ccccc2)cc1 (stereo unspecified)	18.3 µM
O=C(OC(C(=O)NCc1cccs1)c1ccccn1)c1cccs1 (stereo unspecified)	6.36 µM
Cc1ccc(S(=O)(=O)n2nc(OC(=O)c3cccs3)cc2N)cc1	1.99 µM
Nc1cc(OC(=O)c2cccs2)nn1S(=O)(=O)c1ccc(F)cc1	0.435 µM
CCCCc1[nH]nc2c1C1(C(=O)N(CC)c3ccccc31)C(C#N)=C(N)O2 (stereo unspecified)	> 50 µM (inactive)
CCn1nc(-c2ccccc2)nc2c(=O)n(C)c(=O)nc1-2	0.071 µM
Nc1cc(OC(=O)c2cccs2)nn1S(=O)(=O)c1ccccc1	0.247 µM
O=C(Oc1oc(-c2ccco2)nc1C=Nc1ccccc1)c1ccco1	38.5 µM
N#Cc1c(N)sc(=S)c2c1CCN(Cc1ccccc1)C2	1.64 µM
COc1ccc(S(=O)(=O)n2nc(OC(=O)c3ccccc3)cc2N)cc1	9.56 µM
Nc1nonc1-c1nc2ccccc2n1Cc1ccc(F)cc1	33.9 µM
O=S(=O)(/N=S1/CC=CCN1S(=O)(=O)c1ccccc1)c1ccccc1 (stereo unspecified)	9.39 µM
CCOc1ccc(CCNC(=O)Cn2c(-c3nonc3N)nc3ccccc32)cc1OCC	> 50 µM (inactive)
COc1ccc(S(=O)(=O)n2nc(OC(=O)c3ccco3)cc2N)cc1	0.923 µM
